Source: article PMC6751662, “Pharmacological and functional similarities of the human neuropeptide Y system in C. elegans challenges phylogenetic views on the FLP/NPR system” (Cell Communication and Signaling : CCS, 2019)

Legend:
[1] = biological target: T1, Y1R (Homo sapiens, UniProt P25929); test: cAMP reporter gene assay, Gi/o, Y1R; assay type: cell-based; conditions: for cAMP assay (Gi/o), Y1R: 4 h, lower = higher Gi/o activity, transfected HEK293, CRE-luciferase, mean of >=3 independent experiments; for Gi (Gs) [x-fold of forskolin], Y1R, mean: inhibition of cAMP production induced by 1 µM forskolin (set to 1.00), transiently transfected HEK293 cells, mean of at least three independent experiments
T1 construct: expressed in transfected cells; host or cells: HEK293, transient
T1 sequence (P25929 1-384): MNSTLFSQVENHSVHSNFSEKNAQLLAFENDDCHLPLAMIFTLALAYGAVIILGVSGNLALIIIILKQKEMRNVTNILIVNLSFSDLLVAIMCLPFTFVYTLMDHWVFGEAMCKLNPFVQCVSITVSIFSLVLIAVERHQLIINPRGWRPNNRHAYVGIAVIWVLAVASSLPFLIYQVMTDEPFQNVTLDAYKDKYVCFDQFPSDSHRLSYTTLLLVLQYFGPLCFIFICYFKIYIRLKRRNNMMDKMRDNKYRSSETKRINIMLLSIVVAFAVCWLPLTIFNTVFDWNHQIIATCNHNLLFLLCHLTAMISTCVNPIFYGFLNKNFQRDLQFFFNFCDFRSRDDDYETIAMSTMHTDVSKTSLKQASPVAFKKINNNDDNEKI
Method: Activation of Gs and Gi/o was assessed with a cAMP reporter gene assay. HEK293 cells grown to 70–80% confluency in 6-well plates were transiently co-transfected with vectors encoding the receptor and the cAMP reporter gene plasmid pGL4.29 [luc2P/CRE/Hygro] (Promega; 4 μg total, 1:1 ratio) using Metafectene Pro (3 μl/μg DNA; Biontex) following the manufacturer’s instructions. 16 h post transfection, the cells were seeded into white 384-well plates at a density of 20,000 cells/well. On the next day, the medium was removed and the cells were stimulated with 20 μl of peptide solution (or forskolin as positive control) in serum-free DMEM for 4 h. For measuring Gi/o activity, the peptide solutions additionally contained 1 μM forskolin to elevate cellular cAMP levels. After incubation, the luciferase substrate OneGlo in lysis buffer (Promega) was added and the luminescence was measured in a microplate reader Tecan Spark (Tecan). Data were analyzed with GraphPad Prism 5.03 and are shown as fold of basal or fold of forskolin in case of Gαi/o activity.
(§1) For in vitro activation, data is presented as mean ± SEM of at least three independent experiments conducted in technical triplicate. […] For the C. elegans NPRs, we considered the strongest response elicited by any of the peptides downstream of a particular receptor as the receptor’s maximal signal. This may or may not be the biological maximum that can be reached by the ‘true’ endogenous agonist. For the human receptors, the response to the established endogenous agonist reflected the maximal signal.

[2] = biological target: T2, NPR-1 (Caenorhabditis elegans, UniProt Q18534); test: IP accumulation assay, chimeric GαΔ6qi4myr, NPR-1; assay type: cell-based, C. elegans; design: expressed in transfected cells; host or cells: HEK293; conditions: 1 h, HBSS + 20 mM LiCl, HEK293 receptor + GαΔ6qi4myr, HTRF IP-One
T2 sequence (Q18534 1-457): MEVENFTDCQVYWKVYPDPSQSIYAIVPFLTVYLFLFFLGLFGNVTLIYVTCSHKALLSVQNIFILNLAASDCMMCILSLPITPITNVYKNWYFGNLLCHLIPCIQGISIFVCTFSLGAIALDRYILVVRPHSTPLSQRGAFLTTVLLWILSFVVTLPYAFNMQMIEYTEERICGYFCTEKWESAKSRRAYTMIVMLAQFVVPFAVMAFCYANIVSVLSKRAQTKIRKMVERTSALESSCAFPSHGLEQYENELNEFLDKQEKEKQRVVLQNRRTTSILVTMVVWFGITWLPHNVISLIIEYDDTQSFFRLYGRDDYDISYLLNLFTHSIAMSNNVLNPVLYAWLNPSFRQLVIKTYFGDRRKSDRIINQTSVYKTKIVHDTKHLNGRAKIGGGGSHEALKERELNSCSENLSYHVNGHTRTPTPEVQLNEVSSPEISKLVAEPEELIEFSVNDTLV
Method: (§2) For measuring IP accumulation, HEK293 cells grown to 70–80% confluency in 6-well plates were transiently co-transfected using Metafectene Pro (2.5 μl/μg DNA; Biontex) with plasmids containing receptor and/or mock (empty pcDNA3.1) (for endogenous Gq-coupling) using 4 μg total DNA in a ratio of 3:1 following the manufacturer’s instructions. For testing Gα16- and GαΔ6qi4myr-coupling, plasmids encoding the corresponding Gα protein were co-transfected instead of mock. Gα16 is naturally promiscuous and stimulates the phospholipase C (PLC) pathway leading to IP production, while the exchange of the C-terminal four amino acids of Gαq for the corresponding residues of Gαi1 in the chimeric GαΔ6qi4myr confers the ability to couple to Gi/o protein-preferring receptors but still stimulate PLC, thus specifically redirecting downstream cellular signaling. 16 h post transfection, the cells were seeded into white 384-well plates at a density of 20,000 cells/well. Media was removed 24 h later and the cells were incubated with the indicated concentration of peptides for 1 h in HBSS + 20 mM LiCl. IP accumulation was measured with the HTRF-based IP-One Gq kit (Cisbio) on a microplate reader (Tecan Spark).
as §1

[3] = biological target: T3, NPR-3 (Caenorhabditis elegans, UniProt P90745); test: IP accumulation assay, chimeric GαΔ6qi4myr, NPR-3; assay type: cell-based, C. elegans; conditions: 1 h, HBSS + 20 mM LiCl, HEK293 receptor + GαΔ6qi4myr, HTRF IP-One
T3 construct: expressed in transfected cells; host or cells: HEK293
T3 sequence (P90745 1-376): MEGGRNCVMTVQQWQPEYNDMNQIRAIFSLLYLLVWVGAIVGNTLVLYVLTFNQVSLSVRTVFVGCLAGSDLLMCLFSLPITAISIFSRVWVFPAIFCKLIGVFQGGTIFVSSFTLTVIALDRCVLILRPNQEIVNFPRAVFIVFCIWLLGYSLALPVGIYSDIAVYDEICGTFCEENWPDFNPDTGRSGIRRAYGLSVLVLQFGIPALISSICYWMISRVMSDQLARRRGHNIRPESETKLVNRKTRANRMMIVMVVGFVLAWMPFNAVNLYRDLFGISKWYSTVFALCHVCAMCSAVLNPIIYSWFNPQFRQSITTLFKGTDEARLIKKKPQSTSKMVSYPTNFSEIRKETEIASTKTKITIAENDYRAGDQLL
Method: as §2, §1

[4] = 0.1 µM peptide + 1 µM forskolin (set to 1.00)
[5] = 10 µM peptide + 1 µM forskolin (set to 1.00)
[6] = 0.1 µM peptide (Table S8), mean of >=3 independent experiments
[7] = 10 µM peptide, mean of >=3 independent experiments (Tables S5 and S8)
[8] = 0.1 nM peptide (Table S5), mean of >=3 independent experiments

IP accumulation with GαΔ6qi4myr, NPR-1 [2, 6] | IP accumulation with GαΔ6qi4myr, NPR-1 [2, 7] | IP accumulation with GαΔ6qi4myr, NPR-3 [3, 6] | IP accumulation with GαΔ6qi4myr, NPR-3 [3, 7] | Substance | also measured
– | – | – | – | EASAFGDIIGELKGKGLGGRMRF-NH2 [FLP-27, NPY-like C. elegans FLP with C-terminal RxRF/Ya signature] | cAMP assay (Gi/o), Y1R [1, 4]: 0.88 x-fold of forskolin; cAMP assay (Gi/o), Y1R [1, 5]: 0.23 x-fold of forskolin
1.03 x-fold of basal | 0.98 x-fold of basal | 0.96 x-fold of basal | 0.93 x-fold of basal | AGSDPNFLRF-NH2 [FLP-1-2, C. elegans FMRFamide-like peptide, C-terminally amidated, synthesized by SPPS] | –
– | – | – | – | APLEGFEDMSGFLRTIDGIQKPRF-NH2 [FLP-33, NPY-like C. elegans FLP with C-terminal RxRF/Ya signature] | cAMP assay (Gi/o), Y1R [1, 4]: 0.94 x-fold of forskolin; cAMP assay (Gi/o), Y1R [1, 5]: 0.73 x-fold of forskolin
– | – | – | – | RGPSGPLAF-NH2 [[R8A]FLP-15-2] | Gi (Gs) [x-fold of forskolin], Y1R, mean ([1]; 0.1 µM peptide): 0.72 x-fold of forskolin; Gi (Gs) [x-fold of forskolin], Y1R, mean ([1]; 10 µM peptide): 0.71 x-fold of forskolin
0.83 x-fold of basal | 0.89 x-fold of basal | 0.92 x-fold of basal | 1.05 x-fold of basal | ASPSFIRF-NH2 [FLP-4-2, C. elegans FMRFamide-like peptide, C-terminally amidated, synthesized by SPPS] | –
– | – | – | – | GLGPRPLAF-NH2 [[R8A]FLP-21, R8A control peptide of FLP-21, penultimate arginine exchanged for an alanine] | Gi (Gs) [x-fold of forskolin], Y1R, mean ([1]; 0.1 µM peptide): 0.85 x-fold of forskolin; Gi (Gs) [x-fold of forskolin], Y1R, mean ([1]; 10 µM peptide): 0.76 x-fold of forskolin
0.88 x-fold of basal | 0.93 x-fold of basal | 0.88 x-fold of basal | 0.95 x-fold of basal | APKPKFIRF-NH2 [FLP-5-1, C. elegans FMRFamide-like peptide, C-terminally amidated, synthesized by SPPS] | IP assay endog. Gαq + GαΔ6qi4myr, NPR-1 [2, 8]: 0.88 x-fold of basal; IP assay endog. Gαq + GαΔ6qi4myr, NPR-3 [3, 8]: 0.88 x-fold of basal
0.98 x-fold of basal | 0.94 x-fold of basal | 0.97 x-fold of basal | 0.91 x-fold of basal | NPENDTPFGTMRF-NH2 [FLP-3-4, C. elegans FMRFamide-like peptide, C-terminally amidated, synthesized by SPPS] | –
